Measured values taken from patent publication US20230405002A1, “COMBINATIONS OF DIACYLGLYCEROL ACYLTRANSFERASE 2 INHIBITORS AND ACETYL-COA CARBOXYLASE INHIBITOR” (Pfizer Inc., priority 2020, published 2023).

Columns and labels:
[1] = tested on: Western diet fed Sprague Dawley rats; assay: Compound A / Compound D study in Western diet fed rats: hepatic triglyceride (steatosis); type: in vivo, rat; conditions: relative to vehicle administered Western diet fed rats
Description: (§1) A randomized, vehicle-controlled, 8-parallel arm study was conducted in male Sprague-Dawley rats (Charles River (Boston, MA)) to obtain circulating and hepatic TG levels. Standard laboratory conditions were used to house 96 rats (˜200 g); they were double housed and kept under 12:12-hour reverse light-dark schedule (lights off at 8:00 AM). Rats were randomized into chow or Western diet groups and dose groups upon arrival and were given a 14-day lead-in period on either standard rat chow or Western diet prior to the start of the study. Standard Laboratory Rodent chow diet, 5053, was from LabDiet (PMI, St Louis, Missouri). Western Diet, D12079Bi, was from Research Diets (New Brunswick, NJ).
For these studies, vehicle was prepared to make a 0.5% (wt/volume) of methyl cellulose (MC, Sigma Aldrich, 274429) in deionized water.
On the last day of the study (Day 28), rats were sacrificed for tissue collection after a 4 hour fast, 2 hours post-dose: two hours post-dose, blood for determining plasma analytes was collected via lateral tail vein and then the animals were sacrificed by CO2 asphyxiation. Blood was transferred to BD Microtainer tubes coated with K2EDTA (PN365974), centrifuged at 4° C. and the plasma transferred to a 96-well microtitre plate and stored at −20° C. Livers were rapidly removed, freeze-clamped in a Wollenberg clamp pre-cooled in liquid N2 individually wrapped in aluminum foil and subsequently stored at −80° C.
Tissue pulverization: Frozen livers were rapidly pulverized on an aluminum block cooled in liquid N2, ensuring the tissue remained frozen throughout the pulverization. The pulverized tissues were transferred and stored in 7 mL polypropylene conical tubes at −80° C. until analysis.
Extraction for hepatic triglyceride: Approximately 50 to 100 mg of pulverized tissue was added to a 2 mL lysing matrix D tube (MP Bio) containing 800 μL ice cold 1:1 CHCl3:MEOH. Samples were immediately extracted at 4° C. using Qiagen Tissue Lyser II (Qiagen Cat No. 85300) for 4 minutes at 30 Hz. The homogenate was then transferred to 13×100 mm glass tubes and placed on ice. The lysis tubes were then rinsed with 800 μL of 1:1 CHCl3:MeOH, vortexed for 30 seconds and added to the 13×100 mm glass tubes. While on ice, 2.4 ml of 100% CHCl3 was added to all glass vials to bring the ratio of CHCl3:MeOH to 4:2. Samples were then placed in the −20° C. freezer overnight. On the following day, 1.75 mL 1 M KCl H2O was added to bring the ratio to 4:2:1.75 ratio CHCl3:MeOH:H2O. Samples were then vortexed for 30 seconds and centrifuged at 1500 rpm×15 min., at 4° C. After centrifugation, the organic phase was transferred to a fresh 13×100 mm extraction tube, dried down at 37° C. under N2 and re-suspended in 750 μL CHCl3. […]

SREBP-1 = assay: Compound A / Compound D study in Western diet fed rats: nuclear SREBP-1 localization (Western blot); type: in vivo, rat; conditions: high dose; relative to vehicle treated Western diet fed rats
Description: as §1
Nuclear and Membrane fractions were prepared by ultracentrifugation using standard methods from a portion of the pulverized liver samples, that were pooled per treatment group. Samples from the nuclear extract and the membrane fractions were analyzed by Western blotting for SREBP1. Western blots for Calnexin was used as a marker for the membrane fraction, actin as a marker for total sample loading, and Histone 2B as a marker for the nuclear fraction. Nuclear SREBP1 levels were quantified using relative units and normalized to Histone 2B to control for sample loss during the nuclear fractionation and gel loading.

[2] = tested on: CDAHFD fed male Wistar-Han rats; assay: CDAHFD rat study: liver stiffness by shearwave elastography; type: in vivo; conditions: Compound A 5 mg/kg, Compound D 30 mg/kg twice daily, 6 weeks
Source text: Standard laboratory conditions were used to house 60 rats (˜200 g); they were double housed and kept under 12:12-hour reverse light-dark schedule (lights off at 8:00 AM). Rats were fed choline deficient and high fat diet (CDAHFD) beginning 6-weeks prior to initiation of the study. […] Animals (n=12) remaining on normal chow throughout the study and administered twice-daily vehicle were used as a control group. Blood samples were collected prior to starting compound administration and 3- and 6-week post compound administration for the assessment of circulating markers. Shearwave elastography (Aixplorer Ultimate imager, Supersoinc imagine) measurements were made at Week −3, Week 0 (prior to 1st dose), Week 3 and Week 6 to assess inflammation and fibrosis progression over time. Histology was assessed following 6-weeks of drug administration which corresponded to 12 weeks on the CDAHFD. Results are provided as an average of animals per each dosing group.

[3] = high dose (Compound A 10 mg/kg QD, Compound D 30 mg/kg BID)
[4] = low dose (Compound A 1 mg/kg QD, Compound D 5 mg/kg BID)

| SMILES | reduction in steatosis (hepatic triglyceride) [1, 3] | reduction in steatosis (hepatic triglyceride) [1, 4] | nuclear SREBP-1 localization (SREBP-1) | liver stiffness (shearwave elastography) [2] |
| --- | --- | --- | --- | --- |
| COc1cc(C(=O)N2CCC3(CC2)CC(=O)c2c(cnn2C(C)C)C3)cc(-c2ccc(C(=O)O)cc2)n1 [Compound A, 4-(4-(1-isopropyl-7-oxo-1,4,6,7-tetrahydrospiro[indazole-5,4′-piperidine]-1′-carbonyl)-6-methoxypyridin-2-yl)benzoic acid] | 53% | 36% | increased nuclear localization of SREBP-1 | reduced liver stiffness |
| CCOc1cccnc1Oc1cncc(-c2ncc(C(=O)N[C@H]3CCOC3)cn2)c1 [Compound D, (S)-2-(5-((3-ethoxypyridin-2-yl)oxy)pyridin-3-yl)-N-(tetrahydrofuran-3-yl)pyrimidine-5-carboxamide] | 30% | 25% | reduced SREBP-1 nuclear localization | reduced liver stiffness |
